Measurements as given in PMC11429909, “Protein Structure Inspired Discovery of a Novel Inducer of Anoikis in Human Melanoma” (Cancers, 2024).
Entries after “also recorded” stand apart in the source; their conditions may differ.

Tests used:
Assay type in all cases: cell-based, human
M14 = assay: Eight-day colony formation assay, melanoma M14
Procedure: (§1) In addition to screens, eight-day colony formation assays were conducted for certain experiments, as denoted. When measuring the effect of 5-fluorouracil (5FU) on HT29 colon cancer cells, the following final 5FU concentrations were examined: 0 (DMSO only), 0.0012, 0.012, 0.12, 0.82, 5.7, 20, and 40 µM. When measuring the effect of Dxr2-017 on melanoma cell growth, the following concentrations were examined: 0 (DMSO only), 0.001, 0.01, 0.1, 1.0, and 10.0 µM. Melanoma studies were performed on M14 and SK-MEL-5 human melanoma cell lines. For each Dxr2-017 concentration for each cell line, there were N = 3 replicates, and experiments were performed a total of 3 separate times (each with N = 3 replicates). The IC50 values were calculated using nonlinear regression analysis. Data from individual experiments were log-transformed and fitted to a dose–response curve using the four-parameter logistic model of GraphPad Prism 10 software. The IC50 values were determined using the dose–response inhibition function. IC50 values from each of three different experiments were used to calculate mean ± SEM.

cleaved caspase 3 = assay: Western blot for cleaved caspase 3, M14; settings: up to 10 µM, three days
Procedure: (§2) After treatment of M14 and SK-MEL-5 cells with different concentrations of Dxr2-017 or vehicle for 3 or 8 days, as denoted, cell images were captured at 20X in a transmitted light channel using the EVOS™ M5000 Imaging System (Invitrogen (Waltham, MA, USA)). Western blots were performed as previously described by us. Briefly, cells were collected and lysed using RIPA lysis buffer (25 mM Tris-HCl pH 7.6, 150 mM NaCl, 1% NP-40, 1% sodium deoxycholate, and 0.1% SDS; Thermo Scientific^TM (Waltham, MA, USA), #89900), supplemented with protease and phosphatase inhibitor cocktail (Thermo Scientific^TM, #78442) and 1 mM of PMSF. Resultant Western blots were probed using antibodies against cleaved caspase 3 (Cell Signaling Technology (Danvers, MA, USA), #9664), pan-cadherin (Cell Signaling Technology, #4068), and β-actin (Santa Cruz (Santa Cruz, CA, USA), #sc-47778).
We then assessed whether Dxr2-017 induced apoptosis. We treated M14 and SK-MEL-5 cells with Dxr2-017 for three days at concentrations of up 10 and 20 µM, respectively, and measured cleaved caspase 3 using Western blot. […] In this assay, cells were grown in six-well plates and washed prior to lysis, and thus only adherent cells remained. […] Adherent cells are spread out and fusiform shaped, while detached/floating cells are round, as previously reported by us. […]

M14 cells [1] = assay: Cell cycle analysis by flow cytometry, M14; settings: 20 nM, eight days
Procedure: A total of 1 × 10^4 M14 cells and 1 × 10^4 SK-MEL-5 cells were seeded into 10 cm culture dishes. Twenty-four hours later, cells were treated in replicates of N = 3, with Dxr2-017 at 20 nM for M14 and 50 nM for SK-MEL-5, or vehicle for controls for a total of eight days, with replacement of media, along with Dxr2-017 or vehicle, at day five. Cells were then collected, filtered to obtain single-cell suspensions, equal numbers of cells were fixed in 1 mL of 70% ethanol at 4 °C for 1 h, washed with PBS, and resuspended in 1 mL of Telford reagent (1 mM EDTA disodium salt, 2.5 U/mL RNAse A, 75 µM Propidium Iodide, and 0.1% Triton X-100 in PBS), and then incubated at 4 °C overnight. Cells were analyzed by flow cytometry (FACSCalibur analyzer, BD Biosciences). Cells were gated on forward scatter (FSC) versus side scatter (SCC) to remove debris, followed by gating of single cells using PI (FL2)-Area versus PI (FL2)-Width. Cell cycle analysis was performed on the PI (FL2)-Area parameter, and the percentages of cells within G0/G1, S, and G2/M phases were determined using Modfit LT 4.0.5.

pan-cadherin = assay: Western blot for pan-cadherin, M14
Procedure: as §2
These findings led us to compare cleaved caspase 3 between adherent cells and floating cells. Cleaved caspase 3 is an indicator of programmed cell death, and its triggering by loss of cell attachment is an established means of detecting anoikis. Adherent cells were prepared as above. […]

SK-MEL-5 = assay: Eight-day colony formation assay, melanoma SK-MEL-5
Procedure: as §1

SK-MEL-5 cells = assay: Adherent versus floating cell quantification from images, SK-MEL-5; settings: 20 µM, 3-day treatment, mean ± SEM (N = 4), controls 19.5 ± 3.2%
Procedure: as §2, with “Resultant Western blots were probed using antibodies against cleaved caspase 3 (Cell Signaling Technology (Danvers, MA, USA), #9664), pan-cadherin (Cell Signaling Technology, #4068), and β-actin (Santa Cruz (Santa Cruz, CA, USA), #sc-47778).” left out
(§3) Figure 8 Dxr2-017 inhibits melanoma cell growth through induction of anoikis. […] Data are expressed as the percent of untreated control and are the mean ± SEM of three separate experiments. […] M14 and SK-MEL-5 cells were treated for eight days with 20 nM and 50 nM of Dxr2-017, respectively, and the phase of the cell cycle was determined by flow cytometry. […] (D) Adherent and floating cells were quantified from captured images. Data are the mean ± SEM (N = 4), expressed as a percentage to total cells. * Denotes p-value ≤ 0.05 compared to respective floating or attached cells. […]
(§4) We then assessed whether Dxr2-017 induced apoptosis. […]

M14 cells [2] = assay: Adherent versus floating cell quantification from images, M14; settings: 10 µM, 3-day treatment, mean ± SEM (N = 4), controls 16.3 ± 2.8%
Procedure: as §2, with “Resultant Western blots were probed using antibodies against cleaved caspase 3 (Cell Signaling Technology (Danvers, MA, USA), #9664), pan-cadherin (Cell Signaling Technology, #4068), and β-actin (Santa Cruz (Santa Cruz, CA, USA), #sc-47778).” left out
as §3, §4

With `c1ccc2sc(-c3ccc(CNc4ccc5nnnn5n4)o3)nc2c1` [Dxr2-017] the IC50 (M14; Homo sapiens, 192 h, M14 melanoma, mean ± SEM of three experiments) was 12 nM, the “fold efficacy relative to bone marrow stem cells treated at 40 µM” value (M14; M14 IC50 versus eight-day bone marrow treatment at 40 µM) was “over 2100 fold” and the “cleaved caspase 3, adherent and floating cells combined” value (cleaved caspase 3) was “clear formation was observed”. The “cleaved caspase 3, adherent cells only” value (cleaved caspase 3) was “did not see any induction of cleaved caspase 3; also recorded: no formation of cleaved caspase 3”, the “effect on cell cycle parameters” value (M14 cells [1]) was “little-to-no change in cell cycle parameters” and the cadherin expression (pan-cadherin) was “decreased cadherin expression in a concentration-dependent manner”. The IC50 (SK-MEL-5; Homo sapiens, 192 h, SK-MEL-5 melanoma, mean ± SEM of three experiments) was 51 ± 11 nM, the “fold efficacy relative to bone marrow stem cells treated at 40 µM” value (SK-MEL-5; SK-MEL-5 IC50 versus eight-day bone marrow treatment at 40 µM) was greater than 750 fold and the “floating cell population, percentage to total cells” value (SK-MEL-5 cells) was 60.8 ± 10.4%. The “floating cell population, percentage to total cells” value (M14 cells [2]) was 79.9 ± 7.4%.
